Experimental data from US20230312605A1, “PYRROLO[2,1-F][1,2,4]TRIAZINES AND PREPARATION AND USES THEREOF” (BioSplice Therapeutics, Inc., priority 2021, published 2023).

biological target: recombinant DYRK1A kinase (Homo sapiens (Human), UniProt Q13627); assay: DYRK1A kinase assay (Ser/Thr 18 peptide Z-lyte FRET assay); assay type: biochemical; conditions: recombinant DYRK1A 0.25 µg/mL, ATP 15 µM, Ser/Thr peptide 18 4 µM, one hour at room temperature; table head prints EC50, method says IC50
Method: Representative compounds were screened using the assay procedure for DYRK1A kinase activity as described below.
Each compound was dissolved in DMSO as a 10 mM stock and used to prepare compound source plates. Serial dilution (1:3, 11-point dose-response curves from 10 µM to 0.00016 µM) and compound transfer was performed using the ECHO 550 (Labcyte, Sunnyvale, CA) into 1536-well black-walled round bottom plates (Corning).
The DYRK1A kinase assay was run using the Ser/Thr 18 peptide Z-lyte assay kit according to manufacturer’s instructions (Life Technologies- a Division of Thermo-Fisher). This is a non-radioactive assay using fluorescence resonance energy transfer (FRET) between coumarin and fluorescein to detect kinase activity which is represented as a ratio of coumarin emission/fluorescein emission.
Briefly, recombinant DYRK1A kinase, ATP and Ser/Thr peptide 18 were prepared in 1X Kinase buffer to final concentrations of 0.25 µg/mL, 15 µM, and 4 µM respectively. The mixture was allowed to incubate with the representative compounds for one hour at room temperature. All reactions were performed in duplicate. Unphosphorylated (“0% Control”) and phosphorylated (“100% control”) forms of Ser/Thr 18 served as control reactions. Additionally, an 11-point dose-response curve of Staurosporine (1uM top) was run to serve as a positive compound control.
After incubation, Development Reagent A was diluted in Development Buffer then added to the reaction and allowed to further incubate for one hour at room temperature. The plate was read at Ex 400 Em 455 to detect the coumarin signal and Ex 400 Em 520 to measure the signal (EnVision Multilabel Plate Reader, PerkinElmer).
The Emission ratio (Em) was calculated as a ratio of the coumarin (C) emission signal (at 445 nm)/Fluorescein (F) emission signal (at 520 nm). The percent phosphorylation was then calculated using the following formula: [1 — ((Em ratio X F100%)—C100%)/ ((C0%—C100%) + (Em ratio X (F100% - F0%)))]. Dose-response curves were generated, and inhibitory concentration (IC50) values were calculated using non-linear regression curve fit in the Dotmatics’ Studies Software (Bishops Stortford, UK).

| Structure (SMILES) | EC50 |
| --- | --- |
| FC(F)(CNc1ncc2c(-c3cnc4nccn4c3)ccn2n1)C1CC1 [Compound 232, N-(2-Cyclopropyl-2,2-difluoroethyl)-5-(imidazo[1,2-a]pyrimidin-6-yl) pyrrolo[2,1-f][1,2,4]triazin-2-amine] | 9 nM |
| O[C@H]1CC[C@@H](Nc2ncc3c(-c4cnc5ncccc5c4)ccn3n2)CC1 [Compound 1535, cis-4-((5-(1.8-Naphthyridin-3-yl)pyrrolo[2,1-f][1,2,4]triazin-2-yl)amino) cyclohexan-1-ol] | 7 nM |
| Cc1nc2ccc(-c3ccn4nc(N[C@H]5CC[C@@H](CN6CCN(C)CC6)CC5)ncc34)nc2n1CC(F)F [Compound 1841, 5-(3-(2,2-Difluoroethyl)-2-methyl-3H-imidazo[4,5-b]pyridin-5-yl)-N-(cis-4-((4-methylpiperazin-1-yl)methyl)cyclohexyl)pyrrolo[2,1-f][1,2,4]triazin-2-amine] | 6 nM |
| FC1(F)CCC(Nc2ncc3c(-c4ccc5nccnc5c4)ccn3n2)CC1 [Compound 1392, N-(4,4-Difluorocyclohexyl)-5-(quinoxalin-6-yl)pyrrolo[2,1-f][1,2,4]triazin-2-amine] | 529 nM |
| Cc1nc2ccc(-c3ccn4nc(N[C@H]5CCN(C)C[C@H]5F)ncc34)nc2n1CC(F)F [Compound 1856] | 6 nM |
| CN1CC2(CC(Nc3ncc4c(-c5ccc6ncccc6c5)ccn4n3)C2)C1 [Compound 1348, N-(2-Methyl-2-azaspiro[3.3]heptan-6-yl)-5-(quinolin-6-yl)pyrrolo[2,1-f] [1,2,4]triazin-2-amine] | 5 nM |
| C[C@]1(O)CC[C@@H](Nc2ncc3c(-c4cnc5ncccc5c4)ccn3n2)CC1 [Compound 1536, (1 s,4s)-4-((5-(1,8 -Naphthyridin-3-yl)pyrrolo [2,1-f] [1,2,4]triazin-2-yl)amino)-1-methylcyclohexan-1-ol] | 5 nM |
| Cc1nc2ncc(-c3ccn4nc(N[C@H]5C[C@@](C)(O)C5)ncc34)cc2n1CC(F)F [Compound 1813, cis-3-((5-(1-(2,2-Difluoroethyl)-2-methyl-1H-imidazo [4,5-b]pyridin-6-yl)pyrrolo[2,1-f] [1,2,4]triazin-2-yl)amino)-1-methylcyclobutan-1-ol] | 4 nM |
| COCCO[C@H]1CC[C@@H](Nc2ncc3c(-c4cnc5nc(C)n(CC(F)F)c5c4)ccn3n2)CC1 [Compound 691, 5-(1-(2,2-Difluoroethyl)-2-methyl-1H-imidazo[4,5-b]pyridin-6-yl)-N-(cis-4-(2-methoxyethoxy)cyclohexyl)pyrrolo[2,1-f][1,2,4]triazin-2-amine] | 3 nM |
| Cc1nc2ccc(-c3ccn4nc(NC5CCN(C6COC6)CC5)ncc34)nc2n1CC(F)F [Compound 1862, 5-(3-(2,2-Difluoroethyl)-2-methyl-3H-imidazo[4,5-b]pyridin-5-yl)-N-(1-(oxetan-3-yl)piperidin-4-yl)pyrrolo[2,1-f][1,2,4]triazin-2-amine] | 6 nM |
| Cc1nc2ccc(-c3ccn4nc(N[C@H]5CC[C@@H](CN6CCOCC6)CC5)ncc34)nc2n1CC(F)F [Compound 1842, 5-(3-(2,2-difluoroethyl)-2-methyl-3H-imidazo[4,5-b]pyridin-5-yl)-N-(cis-4-(morpholinomethyl)cyclohexyl)pyrrolo[2,1-f][1,2,4]triazin-2-amine] | 5 nM |
| Cc1nc2ncc(-c3ccn4nc(N[C@H]5CC[C@@](C)(O)CC5)ncc34)cc2n1CC(F)F [Compound 684, cis-4-((5-(1-(2,2-Difluoroethyl)-2-methyl-1H-imidazo[4,5-b]pyridin-6-yl)pyrrolo[2,1-f][1,2,4]triazin-2-yl)amino)-1-methylcyclohexan-1-ol] | 4 nM |
| Cc1nc2ccc(-c3ccn4nc(N[C@H]5CC[C@@H](OC(F)F)CC5)ncc34)nc2n1CC(F)F [Compound 1113, N-(cis-4-(Difluoromethoxy)cyclohexyl)-5-(3-(2,2-difluoroethyl)-2-methyl-3H-imidazo[4,5-b]pyridin-5-yl)pyrrolo[2,1-f][1,2,4]triazin-2-amine] | 7 nM |
